We go through four compounds from patent US10227374B2, “Silyl etherified derivatives of 5-azacytidines in carbohydrate moiety” (OHARA PHARMACEUTICAL CO., LTD., priority 2016, dated 2019).

Read-outs that look alike come from different tables or passages of the source.

Series [1] addresses cytidine deaminase: CDA (1-146aa), Human, His-tagged, Recombinant (Homo sapiens, UniProt P32320). Description: Stability against cytidine deaminase (HPLC). Here is the method:
Stability of Silyl Etherified Derivatives of 5-azacytidines in Carbohydrate Moiety Against Cytidine Deaminase
About 1 mg each of the silyl etherified derivatives of 5-azacytidines in carbohydrate moiety (referring to formula (1a)) was dissolved in 1 mL of acetonitrile. 10 μL of the solution was diluted with 1 mL of PBS. 10 μL of PBS solution of cytidine deaminase was added to the solution and stirred at 37° C. for about 1 hour. 1 mL of acetonitrile was added to the reaction solution and separated by centrifugation. The supernatant was analyzed with HPLC.
Cytidine deaminase: CDA (1-146aa), Human, His-tagged, Recombinant cytidine deaminase (ATGen)
Column: CAPCELL PAK ADME (4.6 mm×150 mm, particle size: 3 μm)
Elution: eluate A=Purified water containing 10 mM ammonium formate • eluate B=Acetonitrile • Gradient mode: A:B=99:1→5:95/30 minutes

The next series relates to RPMI-8226 myeloma cells. Description: Anti-myeloma activity, inhibition of cell proliferation. The series is classed as cell-based. To be noted: Homo sapiens, 72 hours incubation, cell count. Here is the method:
After incubation in RPMI-1640 (containing 10% FBS and 1% Penn-strep) for 72 hours, cell count was determined and IC50 values were calculated as inhibitory effect against cell proliferation (referring to Journal of Clinical Pathology, 2006, 59, 947-951.).

Series [2] in a line: Non-enzymatic hydrolysis in PBS solution at 37° C. (HPLC). Particulars: 10 mM PBS; for 5-Azacytidine or 2′-deoxy-5-azacytidine (%) After 4 hours / 5-Azacytidine or 2′-deoxy-5-azacytidine (%) After 8 hours / 5-Azacytidine or 2′-deoxy-5-azacytidine (%) After 24 hours: released parent by HPLC; for production of the desilylated parent (5-azacytidine or 2′-deoxy-5-azacytidine): traced by HPLC. The series is classed as physicochemical. Here is the method:
Non-Enzymatic Hydrolysis of Silyl Etherified Derivatives of 5-Azacytidines in Carbohydrate Moiety
5 μL of the solution was added to 100 μL of 10 mM PBS solution and stirred at 37° C. The reactions were traced by HPLC analysis.
HPLC conditions were same as those in test example 1.

The mark [3] stands for this setting: PBS, cytidine deaminase, 37° C., about 1 hour, peak of the starting material.

Sequence of cytidine deaminase: CDA (1-146aa), Human, His-tagged, Recombinant (P32320 whole entry): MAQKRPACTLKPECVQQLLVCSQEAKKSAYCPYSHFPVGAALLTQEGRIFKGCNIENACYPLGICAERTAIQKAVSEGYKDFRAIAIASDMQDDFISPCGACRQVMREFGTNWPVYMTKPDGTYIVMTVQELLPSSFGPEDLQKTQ

In the case of `Nc1ncn([C@H]2C[C@H](O)[C@@H](CO)O2)c(=O)n1` [2′-Deoxy-5-azacytidine, 2′-deoxy-5-azacytidine, reference compound], the “stability against cytidine deaminase (in words)” value in series [1] (PBS, cytidine deaminase, 37° C.) was “disappeared completely”. Further, the “Change in HPLC pattern” value in series [1] (setting [3]) is on record as “The peak of the starting material disappeared”. The half-maximal inhibitory concentration (IC50) in the series with RPMI-8226 myeloma cells was 30 nM.
For `CC(C)(C)[Si](C)(C)OC[C@H]1O[C@@H](n2cnc(N)nc2=O)[C@H](O)[C@@H]1O` [compound E, 5′-O-(tert-Butyldimethylsilyl)-5-azacytidine], in series [1], the “Change in HPLC pattern” value was “Almost no change in the peak of the starting”.
For `CC[Si](CC)(CC)OC[C@H]1O[C@@H](n2cnc(N)nc2=O)[C@H](O)[C@@H]1O` [compound J, 5′-O-Triethylsilyl-5-azacytidine], in series [1], the “Change in HPLC pattern” value is given as “Almost no change in the peak of the starting”. Further, in series [2], the “5-Azacytidine or 2′-deoxy-5-azacytidine (%) After 4 hours” value was found to be 16%, the “5-Azacytidine or 2′-deoxy-5-azacytidine (%) After 8 hours” value is 22%, the “5-Azacytidine or 2′-deoxy-5-azacytidine (%) After 24 hours” value was 62% and the “production of the desilylated parent (5-azacytidine or 2′-deoxy-5-azacytidine)” value was “production of 5-azacytidine was confirmed”. In addition, it took 656 nM to reach half-maximal inhibition with RPMI-8226 myeloma cells (IC50).
For the compound `CC[Si](CC)(CC)OC[C@H]1O[C@@H](n2cnc(N)nc2=O)C[C@@H]1O` [compound K, 5′-O-Triethylsilyl-2′-deoxy-5-azacytidine], the “Change in HPLC pattern” value in series [1] (setting [3]) is listed as “Almost no change in the peak of the starting”. Besides, in series [2], the “5-Azacytidine or 2′-deoxy-5-azacytidine (%) After 4 hours” value amounted to 10%, the “5-Azacytidine or 2′-deoxy-5-azacytidine (%) After 8 hours” value was 12%, the “5-Azacytidine or 2′-deoxy-5-azacytidine (%) After 24 hours” value is on record as 48% and the “production of the desilylated parent (5-azacytidine or 2′-deoxy-5-azacytidine)” value is “production of corresponding deskill form (2′-deoxy-5-azacytidine) was confirmed”. The IC50 with RPMI-8226 myeloma cells is 270 nM.

What is called IC50 is the concentration at which inhibition is half-maximal.
